Laboratory results: patent US20110039847A1, “AMIDE DERIVATIVES AS SIRTUIN MODULATORS” (Sirtris Pharmaceuticals, Inc, priority 2007, published 2011)
Counter-ions that a name gives are not always drawn.

Target: T1, SIRT1 (Homo sapiens, UniProt Q96EB6)
T1 sequence (Q96EB6 1-747): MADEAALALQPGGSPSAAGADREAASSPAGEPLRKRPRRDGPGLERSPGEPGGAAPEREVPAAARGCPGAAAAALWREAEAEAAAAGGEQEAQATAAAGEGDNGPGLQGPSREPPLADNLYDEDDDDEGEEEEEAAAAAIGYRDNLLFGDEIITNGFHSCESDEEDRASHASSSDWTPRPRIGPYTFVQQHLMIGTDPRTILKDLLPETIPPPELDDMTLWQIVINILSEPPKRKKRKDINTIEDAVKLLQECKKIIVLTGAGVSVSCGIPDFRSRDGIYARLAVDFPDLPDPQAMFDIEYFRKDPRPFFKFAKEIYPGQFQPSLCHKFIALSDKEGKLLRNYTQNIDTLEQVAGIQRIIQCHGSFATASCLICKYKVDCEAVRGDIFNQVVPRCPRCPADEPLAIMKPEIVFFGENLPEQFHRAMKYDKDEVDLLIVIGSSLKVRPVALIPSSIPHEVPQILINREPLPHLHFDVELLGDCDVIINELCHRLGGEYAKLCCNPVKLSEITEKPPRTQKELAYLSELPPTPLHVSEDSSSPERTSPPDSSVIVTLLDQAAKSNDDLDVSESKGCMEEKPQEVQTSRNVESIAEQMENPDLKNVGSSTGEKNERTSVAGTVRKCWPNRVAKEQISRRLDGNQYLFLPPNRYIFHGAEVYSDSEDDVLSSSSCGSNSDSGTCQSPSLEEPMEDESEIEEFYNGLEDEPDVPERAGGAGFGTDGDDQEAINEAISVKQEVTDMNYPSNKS
Experiment: Mass spectrometry based SIRT1 deacetylation (activation) assay
Assay type: biochemical
Conditions: 0.5 μM peptide substrate, 120 μM βNAD+, 10 nM SIRT1, 25 min at 25° C.; for Emax: 25 min, read-out: % Fold Act. (percent maximum fold activation)
Text: A mass spectrometry based assay was used to identify modulators of SIRT1 activity. The mass spectrometry based assay utilizes a peptide having 20 amino acid residues as follows: Ac-EE-K(biotin)-GQSTSSHSK(Ac)NleSTEG-K(5TMR)-EE-NH2 (SEQ ID NO: 1) wherein K(Ac) is an acetylated lysine residue and Nle is a norleucine. The peptide is labeled with the fluorophore 5TMR (excitation 540 nm/emission 580 nm) at the C-terminus. The sequence of the peptide substrate is based on p53 with several modifications. In addition, the methionine residue naturally present in the sequence was replaced with the norleucine because the methionine may be susceptible to oxidation during synthesis and purification.
The mass spectrometry assay is conducted as follows: 0.5 μM peptide substrate and 120 μM βNAD^+ is incubated with 10 nM SIRT1 for 25 minutes at 25° C. in a reaction buffer (50 mM Tris-acetate pH 8, 137 mM NaCl, 2.7 mM KCl, 1 mM MgCl2, 5 mM DTT, 0.05% BSA). Test compounds may be added to the reaction as described above. […] After the 25 minute incubation with SIRT1, 10 μL of 10% formic acid is added to stop the reaction. Reactions are sealed and frozen for later mass spec analysis. Determination of the mass of the substrate peptide allows for precise determination of the degree of acetylation (i.e. starting material) as compared to deacetylated peptide (product).
A control for inhibition of sirtuin activity is conducted by adding 1 μL of 500 mM nicotinamide as a negative control at the start of the reaction (e.g., permits determination of maximum sirtuin inhibition). A control for activation of sirtuin activity is conducted using 10 nM of sirtuin protein, with 1 μL of DMSO in place of compound, to determine the amount of deacetylation of the substrate at a given timepoint within the linear range of the assay. This timepoint is the same as that used for test compounds and, within the linear range, the endpoint represents a change in velocity.
For the above assay, SIRT1 protein was expressed and purified as follows. […] The protein was expressed by induction with 1 mM IPTG as an N-terminal His-tag fusion protein at 18° C. overnight and harvested at 30,000×g. Cells were lysed with lysozyme in lysis buffer (50 mM Tris-HCl, 2 mM Tris[2-carboxyethyl]phosphine (TCEP), 10 μM ZnCl2, 200 mM NaCl) and further treated with sonication for 10 min for complete lysis. The protein was purified over a Ni-NTA column (Amersham) and fractions containing pure protein were pooled, concentrated and run over a sizing column (Sephadex S200 26/60 global). The peak containing soluble protein was collected and run on an Ion-exchange column (MonoQ). Gradient elution (200 mM-500 mM NaCl) yielded pure protein. This protein was concentrated and dialyzed against dialysis buffer (20 mM Tris-HCl, 2 mM TCEP) overnight. The protein was aliquoted and frozen at −80° C. until further use.

Row | EC1.5 | Emax | SMILES
1 | A (EC1.5≦1 uM) | ≥ 300% | CCN(CCN(C)C)c1cc(C(=O)Nc2ccccc2-c2nnc(C(C)C)s2)nc(-c2ccccc2)n1 [Compound 83]
2 | A (EC1.5≦1 uM) | 150 to 300% | CCN(CCOC)c1cc(C(=O)Nc2ccccc2-c2ncc(C(C)(C)C)s2)nc(-c2ccccc2)c1 [Compound 84]
3 | A (EC1.5≦1 uM) | ≥ 300% | CCN(CCOC)c1cc(C(=O)Nc2ccccc2-c2ncc(C(C)(C)C)o2)nc(-c2ccccc2)c1 [Compound 85]
4 | A (EC1.5≦1 uM) | 150 to 300% | CCN(CCN(C)C)c1cc(C(=O)Nc2ccccc2-c2nnc(C(=O)NC)s2)nc(-c2ccccc2)n1 [Compound 86]
5 | A (EC1.5≦1 uM) | ≥ 300% | CCN(CCN(C)C)c1cc(C(=O)Nc2ccccc2-c2nnc(C(=O)N3CCOCC3)s2)nc(-c2ccccc2)n1 [Compound 87]
6 | A (EC1.5≦1 uM) | ≥ 300% | CN1CCN(c2cc(C(=O)Nc3ccccc3-c3nnc(C(=O)N4CCOCC4)s3)nc(-c3ccccc3)n2)CC1=O [Compound 88]
7 | A (EC1.5≦1 uM) | ≥ 300% | O=C1CN(c2cc(C(=O)Nc3ccccc3-c3nnc(C(=O)N4CCOCC4)s3)nc(-c3ccccc3)n2)CCN1 [Compound 89]
8 | A (EC1.5≦1 uM) | ≥ 300% | O=C(Nc1ccccc1-c1nnc(C(=O)N2CCOCC2)s1)c1cc(NC(CO)CO)nc(-c2ccccc2)n1 [Compound 90]
9 | A (EC1.5≦1 uM) | 150 to 300% | O=C(Nc1ccccc1-c1nnc(C(=O)N2CCOCC2)s1)c1cc(OC[C@@H](O)CO)nc(-c2ccccc2)n1 [Compound 91]
10 | A (EC1.5≦1 uM) | ≥ 300% | COCCN(CCOC)c1cc(C(=O)Nc2ccccc2-c2nnc(C(=O)N3CCOCC3)s2)nc(-c2ccccc2)n1 [Compound 92]
11 | A (EC1.5≦1 uM) | ≥ 300% | CCN(CCN(C)C)c1cc(C(=O)Nc2ccccc2-c2nnc(C3CCOCC3)s2)nc(-c2ccccc2)n1 [Compound 93, 6-((2-(dimethylamino)ethyl)(ethyl)amino)-2-phenyl-N-(2-(5-(tetrahydro-2H-pyran-4-yl)-1,3,4-thiadiazol-2-yl)phenyl)pyrimidine-4-carboxamide hydrochloride]
12 | A (EC1.5≦1 uM) | 150 to 300% | CCN1CCN(c2cc(C(=O)Nc3ccccc3-c3nnc(C4CCOCC4)s3)nc(-c3ccccc3)n2)CC1=O [Compound 94, 6-(4-ethyl-3-oxopiperazin-1-yl)-2-phenyl-N-(2-(5-(tetrahydro-2H-pyran-4-yl)-1,3,4-thiadiazol-2-yl)phenyl)pyrimidine-4-carboxamide]
13 | A (EC1.5≦1 uM) | ≥ 300% | O=C1CN(c2cc(C(=O)Nc3ccccc3-c3nncs3)nc(-c3ccccc3)n2)CCN1 [Compound 95]
14 | A (EC1.5≦1 uM) | 150 to 300% | CCN1CCN(c2cc(C(=O)Nc3ccccc3-c3nncs3)nc(-c3ccccc3)n2)CC1=O [Compound 96]
15 | A (EC1.5≦1 uM) | ≥ 300% | CCN(CCN(C)C)c1cc(C(=O)Nc2ccccc2-c2nnc(C3CCOC3)s2)nc(-c2ccccc2)n1 (centres unmarked) [Compound 97, 6-((2-(dimethylamino)ethyl)(ethyl)amino)-2-phenyl-N-(2-(5-(tetrahydrofuran-3-yl)-1,3,4-thiadiazol-2-yl)phenyl)pyrimidine-4-carboxamide]
16 | A (EC1.5≦1 uM) | ≥ 300% | CCN(CCN(C)C)c1cc(C(=O)Nc2ccccc2-c2nnc(NS(C)(=O)=O)s2)nc(-c2ccccc2)n1 [Compound 98]
17 | A (EC1.5≦1 uM) | ≥ 300% | O=C(Nc1ccccc1-c1nncs1)c1cc(NC(CO)CO)nc(-c2ccccc2)n1 [Compound 99]

Row | EC1.5 | Emax | SMILES
18 | A (EC1.5≦1 uM) | 150 to 300% | O=C(Nc1ccccc1-c1nnc(N2CCOCC2)s1)c1cc(N2CCOCC2)nc(-c2ccccc2)n1 [Compound 100]
19 | A (EC1.5≦1 uM) | ≥ 300% | CN(C)CCNc1cc(C(=O)Nc2ccccc2-c2nnc(N3CCOCC3)s2)nc(-c2ccccc2)n1 [Compound 101]
20 | A (EC1.5≦1 uM) | ≥ 300% | O=C(Nc1ccccc1-c1nnc(N2CCOCC2)s1)c1cc(NC(CO)CO)nc(-c2ccccc2)n1 [Compound 102]
21 | A (EC1.5≦1 uM) | ≥ 300% | O=C1CN(c2cc(C(=O)Nc3ccccc3-c3nnc(N4CCOCC4)s3)nc(-c3ccccc3)n2)CCN1 [Compound 103]
22 | A (EC1.5≦1 uM) | 150 to 300% | CCN1CCN(c2cc(C(=O)Nc3ccccc3-c3nnc(N4CCOCC4)s3)nc(-c3ccccc3)n2)CC1=O [Compound 104]
23 | A (EC1.5≦1 uM) | ≥ 300% | CCN(CCN(C)C)c1cc(C(=O)Nc2ccccc2-c2nnc(N3CCOCC3)s2)nc(-c2ccccc2)n1 [Compound 105]
24 | A (EC1.5≦1 uM) | 150 to 300% | COCCN(CCOC)c1cc(C(=O)Nc2ccccc2-c2nnc(N3CCOCC3)s2)nc(-c2ccccc2)n1 [Compound 106]
25 | A (EC1.5≦1 uM) | 150 to 300% | CCN(CCOC)c1cc(C(=O)Nc2ccccc2-c2nnc(N3CCOCC3)s2)nc(-c2ccccc2)n1 [Compound 107]
26 | A (EC1.5≦1 uM) | ≥ 300% | O=C(Nc1ccccc1-c1nnc(N2CCOCC2)s1)c1cc(OC[C@@H](O)CO)nc(-c2ccccc2)n1 [Compound 108]
27 | A (EC1.5≦1 uM) | ≥ 300% | O=C(Nc1ccccc1-c1nnc(N2CCOCC2)s1)c1cc(OC[C@H](O)CO)nc(-c2ccccc2)n1 [Compound 109]
28 | A (EC1.5≦1 uM) | ≥ 300% | O=C(Nc1ccccc1-c1nncs1)c1cc(OC[C@@H](O)CO)nc(-c2ccccc2)n1 [Compound 110]
29 | A (EC1.5≦1 uM) | ≥ 300% | O=C(Nc1ccccc1-c1nncs1)c1cc(OCC(O)CO)nc(-c2ccccc2)n1 (centres unmarked) [Compound 111]
30 | A (EC1.5≦1 uM) | ≥ 300% | CN1CCN(c2cc(C(=O)Nc3ccccc3-c3nncs3)nc(-c3ccccc3)n2)CC1=O [Compound 112]
31 | A (EC1.5≦1 uM) | ≥ 300% | CCN(CCN(C)C)c1cc(C(=O)Nc2ccccc2-c2nnc(NC(=O)N3CCOCC3)s2)nc(-c2ccccc2)n1 [Compound 113]
32 | A (EC1.5≦1 uM) | ≥ 300% | CCN(CCN(C)C)c1cc(C(=O)Nc2ccccc2-c2nnc(C(F)=C3CCOCC3)s2)nc(-c2ccccc2)n1 [Compound 114, 6-((2-(dimethylamino)ethyl)(ethyl)amino)-N-(2-(5-(fluoro(2H-pyran-4(3H,5H,6H)-ylidene)methyl)-1,3,4-thiadiazol-2-yl)phenyl)-2-phenylpyrimidine-4-carboxamide]
33 | A (EC1.5≦1 uM) | ≥ 300% | CCN(CCN(C)C)c1cc(C(=O)Nc2ccccc2-c2nnc(SC)s2)nc(-c2ccccc2)n1 [Compound 115]
34 | A (EC1.5≦1 uM) | ≥ 300% | CCN(CCN(C)C)c1cc(C(=O)Nc2ccccc2-c2nnc([S+](C)[O-])s2)nc(-c2ccccc2)n1 (centres unmarked) [Compound 116]
